This assay has as its target T1, m-calpain (Rattus norvegicus, UniProt Q07009).
T1 construct: m-calpain was purified from rat brain; from tissue; host or cells: rat brain
T1 sequence (Q07009 20-700 limits assumed): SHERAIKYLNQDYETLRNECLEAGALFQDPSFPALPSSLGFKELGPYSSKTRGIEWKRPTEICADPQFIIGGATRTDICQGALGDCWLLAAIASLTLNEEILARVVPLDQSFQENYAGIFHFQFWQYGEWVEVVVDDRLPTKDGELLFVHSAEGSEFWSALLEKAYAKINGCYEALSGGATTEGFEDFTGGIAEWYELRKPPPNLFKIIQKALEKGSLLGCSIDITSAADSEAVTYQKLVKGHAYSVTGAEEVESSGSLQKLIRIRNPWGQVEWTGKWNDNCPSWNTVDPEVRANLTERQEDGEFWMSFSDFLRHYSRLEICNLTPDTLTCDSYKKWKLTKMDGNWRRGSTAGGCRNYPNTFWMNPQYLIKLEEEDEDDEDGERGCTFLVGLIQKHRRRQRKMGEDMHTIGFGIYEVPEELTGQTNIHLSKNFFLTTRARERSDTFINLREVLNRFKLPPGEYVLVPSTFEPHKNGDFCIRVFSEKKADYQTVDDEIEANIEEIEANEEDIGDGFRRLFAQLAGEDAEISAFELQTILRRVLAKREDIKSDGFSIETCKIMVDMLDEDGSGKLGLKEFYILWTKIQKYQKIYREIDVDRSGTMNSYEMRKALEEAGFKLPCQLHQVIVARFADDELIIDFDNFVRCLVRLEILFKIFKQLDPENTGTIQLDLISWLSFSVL
T1 sequence (Q64537 1-270 partner): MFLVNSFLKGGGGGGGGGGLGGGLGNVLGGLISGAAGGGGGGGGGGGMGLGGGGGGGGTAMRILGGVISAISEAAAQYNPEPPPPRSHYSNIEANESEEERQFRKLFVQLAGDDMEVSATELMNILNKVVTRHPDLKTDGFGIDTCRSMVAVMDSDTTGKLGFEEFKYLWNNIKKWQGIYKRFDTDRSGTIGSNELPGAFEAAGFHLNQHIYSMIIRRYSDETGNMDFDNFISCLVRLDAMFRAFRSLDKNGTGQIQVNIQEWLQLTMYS
Nature of the assay: Thiol protease inhibitory activity, m-calpain purified from rat brain. Type of assay: biochemical. To be noted: Table 4. As to the method: Inhibitory activity against papain (P-3125, Sigma) and cathepsin B (C-6286, Sigma) was assayed according to the method described in a literature [Biochemical Journal, 201, 189 (1982)]. Cathepsin L was purified from rat kidney according to the method in a literature [Journal of Biochemistry, 100, 35 (1986)], and the inhibitory activity against it was assayed in the same manner as described in the above literature for cathepsin B. Furthermore, m-calpain was purified from rat brain according to a known method [Journal of Biological Chemistry, 254, p. 3210 (1984)] and the inhibitory activity against it was assayed by a method described in a literature [Journal of Biological Chemistry, 259, 12489 (1984)]. It is evident from Tables 3 and 4 that the compounds of the present invention have a potent inhibitory activity against thiol proteases such as papain, cathepsin B, cathepsin L or m-calpain.

The term IC50 denotes the point on the concentration scale where inhibition reaches its midpoint. Consider `CCCC[C@H](NC(=O)[C@H](CC(C)C)NC(=O)COc1ccc(OC)cc1)C(=O)CSCc1ccco1` [48 (No. 104), (s)-1-furfurylthio-3-[(s)-2-(4-methoxyphenoxyacetylamino)-4-methylvalerylamino]-2-heptanone], for which half-maximal inhibition (IC50) was put at 1 µM.
Compound `CCCC[C@H](NC(=O)[C@H](CC(C)C)NC(=O)c1ccccc1OC)C(=O)CSCc1ccco1` [77 (No. 151), (s)-1-furfurylthio-3-[(s)-2-(2-methoxybenzoylamino)-4-methylvalerylamino]-2-heptanone] had an IC50 of 1.2 µM.
In the case of `CCCC[C@H](NC(=O)[C@H](CC(C)C)NC(=O)c1cc(OC)cc(OC)c1)C(=O)CSCc1ccco1` [80 (No. 155), (s)-3-[(s)-2-(3,5-dimethoxybenzoylamino)-4-methylvalerylamino]-1-furfurylthio-2-heptanone], the IC50 amounted to 4.2 µM.
Take `CCCC[C@H](NC(=O)[C@H](CC(C)C)NC(=O)c1ccc(F)c(F)c1)C(=O)CSCc1ccco1` [62 (No. 124), (s)-3-[(s)-2-(3,4-difluorobenzoylamino)-4-methylvalerylamino]-1-furfurylthio-2-heptanone]: the concentration for half-maximal inhibition (IC50) was 4.3 µM.
Regarding `CCCC[C@H](NC(=O)[C@H](CC(C)C)NC(=O)c1ccc(OC)cc1)C(=O)CSCc1ccco1` [79 (No. 153), (s)-1-furfurylthio-3-[(s)-2-(4-methoxybenzoylamino)-4-methylvalerylamino]-2-heptanone], the half-maximal inhibitory concentration (IC50) was found to be 1.9 µM.
Turning to `CCCC[C@H](NC(=O)[C@H](CC(C)C)NC(=O)c1ccc(C(=O)OC)cc1)C(=O)CSCc1ccco1` [81 (No. 157), (s)-1-furfurylthio-3-[(s)-2-(4-methoxycarbonylbenzoylamino)-4-methylvalerylamino]-2-heptanone], the half-inhibitory concentration (IC50) was determined as 3.4 µM.
With `CCCC[C@H](NC(=O)[C@H](CC(C)C)NC(=O)C=Cc1ccc(OC)cc1OC)C(=O)CSCc1ccco1` [85 (No. 166)], 1.3 µM corresponded to half-maximal inhibition (IC50).
Regarding `CCCC[C@H](NC(=O)[C@H](CC(C)C)NC(=O)COc1ccccc1OC)C(=O)CSCc1ccco1` [47 (No. 102), (s)-1-furfurylthio-3-[(s)-2-(2-methoxyphenoxyacetylamino)-4-methylvalerylamino]-2-heptanone], the half-inhibitory concentration (IC50) was determined as 1.3 µM.
As for `CCCC[C@H](NC(=O)[C@H](CC(C)C)NC(=O)c1ccc(F)c(F)c1F)C(=O)CSCc1ccco1` [64 (No. 126), (s)-1-furfurylthio-3-[(s)-4-methyl-2-(2,3,4-trifluorobenzoylamino)valerylamino]-2-heptanone], the IC50 stood at 4.3 µM.
The compound `CCCC[C@H](NC(=O)[C@H](CC(C)C)NC(=O)OCc1ccccc1)C(=O)CSCc1ccccn1` [105 (No. 226), (s)-3-((s)-2-benzyloxycarbonylamino-4-methylvalerylamino)-1-(2-pyridylmethylthio)-2-heptanone] returned an IC50 of 1.3 µM.
`CCCC[C@H](NC(=O)[C@H](CC(C)C)NC(=O)c1ccccc1F)C(=O)CSCc1ccco1` [55 (No. 117), (s)-3-[(s)-2-(2-fluorobenzoylamino)-4-methylvalerylamino]-1-furfurylthio-2-heptanone] displayed a concentration for half-maximal inhibition (IC50) of 1.5 µM.
Regarding `CC(C)C[C@H](NC(=O)OCc1ccccc1)C(=O)N[C@@H](Cc1ccccc1)C(=O)CSCc1ccc(Cl)s1` [183 (No. 423), (s)-3-((s)-2-benzyloxycarbonylamino-4-methylvalerylamino)-1-(5-chloro-2-thienylmethylthio)-4-phenyl-2-butanone], 9.6 µM corresponded to half-maximal inhibition (IC50).
`CCCC[C@H](NC(=O)[C@H](CC(C)C)NC(=O)c1cc(F)ccc1F)C(=O)CSCc1ccco1` [60 (No. 122), (s)-3-[(s)-2-(2,5-difluorobenzoylamino)-4-methylvalerylamino]-1-furfurylthio-2-heptanone] gave an IC50 of 1.3 µM.
On to `CC(C)C[C@H](NC(=O)OCc1ccccc1)C(=O)N1CCC[C@H]1C(=O)CSCc1ccco1` [Ref. Ex. No. 3, (s)-1-((s)-2-benzyloxycarbonylamino-4-methylvaleryl)-2-furfurylthioacetylpyrrolidine, reference compound], for which the IC50 is above 100 µM.
The compound `CCCC[C@H](NC(=O)[C@H](CC(C)C)NC(=O)OCc1cccc(C#N)c1)C(=O)CSCc1ccco1` [26 (No. 57), (s)-3-[(s)-2-(3-cyanobenzyloxycarbonylamino)-4-methylvalerylamino]-1-furfurylthio-2-heptanone] displayed a concentration for half-maximal inhibition (IC50) of 2.8 µM.
On to `CCCC[C@H](NC(=O)[C@H](CC(C)C)NC(=O)c1cc(F)c(F)c(F)c1)C(=O)CSCc1ccco1` [66 (No. 130), (s)-1-furfurylthio-3-[(s)-4-methyl-2-(3,4,5-trifluorobenzoylamino)valerylamino]-2-heptanone], for which inhibition was half-maximal at 1.4 µM (IC50).
For `CCCC[C@H](NC(=O)[C@H](CC(C)C)NC(=O)OCc1ccccc1)C(=O)CSCc1cccnc1` [106 (No. 228), (s)-3-((s)-2-benzyloxycarbonylamino-4-methylvalerylamino)-1-(3-pyridylmethylthio)-2-heptanone], the half-maximal inhibitory concentration (IC50) turned out to be 3.1 µM.
`CCCC[C@H](NC(=O)[C@H](CC(C)C)NC(=O)c1ccc(F)cc1)C(=O)CSCc1ccco1` [57 (No. 119), (s)-3-[(s)-2-(4-fluorobenzoylamino)-4-methylvalerylamino]-1-furfurylthio-2-heptanone]: the IC50 was determined as 5.3 µM.
`CCCC[C@H](NC(=O)[C@H](CC(C)C)NC(=O)c1ccc(C)cc1)C(=O)CSCc1ccco1` [71 (No. 142), (s)-1-furfurylthio-3-[(s)-4-methyl-2-(4-toluoylamino)valerylamino]-2-heptanone] gave a 50% inhibitory concentration (IC50) of 4.2 µM.
In the case of `CCCC[C@H](NC(=O)[C@H](CC(C)C)NC(=O)c1c(F)cccc1F)C(=O)CSCc1ccco1` [61 (No. 123), (s)-3-[(s)-2-(2,6-difluorobenzoylamino)-4-methylvalerylamino]-1-furfurylthio-2-heptanone], the IC50 is 1.9 µM.
In turn, `CCCC[C@H](NC(=O)[C@H](CC(C)C)NC(=O)c1cccc(F)c1F)C(=O)CSCc1ccco1` [58 (No. 120), (s)-3-[(s)-2-(2,3-difluorobenzoylamino)-4-methylvalerylamino]-1-furfurylthio-2-heptanone] registered an IC50 of 1.6 µM.
Consider `CCCC[C@H](NC(=O)[C@H](CC(C)C)NC(=O)c1cc(F)c(F)c(F)c1F)C(=O)CSCc1ccco1` [67 (No. 132), (s)-1-furfurylthio-3-[(s)-4-methyl-2-(2,3,4,5-tetrafluorobenzoylamino)valerylamino]-2-heptanone], for which inhibition was half-maximal at 2.1 µM (IC50).
Regarding `CCCC[C@H](NC(=O)[C@H](CC(C)C)NC(=O)OCc1ccccc1)C(=O)CSCc1ccncc1` [107 (No. 230), (s)-3-((s)-2-benzyloxycarbonylamino-4-methylvalerylamino)-1-(4-pyridylmethylthio)-2-heptanone], half-maximal inhibition (IC50) was put at 4.2 µM.
On to `CCCC[C@H](NC(=O)[C@H](CC(C)C)NC(=O)c1cccc(F)c1)C(=O)CSCc1ccco1` [56 (No. 118), (s)-3-[(s)-2-(3-fluorobenzoylamino)-4-methylvalerylamino]-1-furfurylthio-2-heptanone], for which the 50% inhibitory concentration (IC50) is 5.2 µM.
`CCCC[C@H](NC(=O)[C@H](CC(C)C)NC(=O)c1c(F)ccc(F)c1F)C(=O)CSCc1ccco1` [65 (No. 128), (s)-1-furfurylthio-3-[(s)-4-methyl-2-(2,3,6-trifluorobenzoylamino)valerylamino]-2-heptanone] returned a 50% inhibitory concentration (IC50) of 5 µM.
The compound `CCCC[C@H](NC(=O)[C@H](CC(C)C)NC(=O)c1c(F)c(F)c(F)c(F)c1F)C(=O)CSCc1ccco1` [68 (No. 135), (s)-1-furfurylthio-3-((s)-4-methyl-2-pentafluorobenzoylaminovalerylamino)-2-heptanone] registered an IC50 of 2.1 µM.
With `CCCC[C@H](NC(=O)[C@H](CC(C)C)NC(=O)c1cc2cccc(F)c2o1)C(=O)CSCc1ccco1` [93 (No. 182), (s)-3-[(s)-2-(7-fluoro-2-benzofuranylcarbonylamino)-4-methylvalerylamino]-1-furfurylthio-2-heptanone], the IC50 was 7.8 µM.
For the compound `CCCC[C@H](NC(=O)[C@H](CC(C)C)NC(=O)c1ccccc1C)C(=O)CSCc1ccco1` [69 (No. 140), (s)-1-furfurylthio-3-[(s)-4-methyl-2-(2-toluoylamino)valerylamino]-2-heptanone], the midpoint of inhibition, the IC50, lay at 5 µM.

For the origin of these results see patent US5639783A, “Ketone derivatives” (Mitsubishi Chemical Corporation, priority 1991, dated 1997).
